Values quoted from earlier work in US10208063B2, “ACC inhibitors and uses thereof” (Gilead Apollo, LLC, priority 2013, dated 2019).

Tests used:
[1] = test system: ACC1; conditions: ACC1 isolated from rat, mouse, monkey and human
[2] = test system: ACC2; conditions: ACC2 isolated from rat, mouse, monkey and human
[3] = molecular target: T1, pyruvate carboxylase (Homo sapiens, UniProt P11498)
T1 sequence (P11498 21-1178): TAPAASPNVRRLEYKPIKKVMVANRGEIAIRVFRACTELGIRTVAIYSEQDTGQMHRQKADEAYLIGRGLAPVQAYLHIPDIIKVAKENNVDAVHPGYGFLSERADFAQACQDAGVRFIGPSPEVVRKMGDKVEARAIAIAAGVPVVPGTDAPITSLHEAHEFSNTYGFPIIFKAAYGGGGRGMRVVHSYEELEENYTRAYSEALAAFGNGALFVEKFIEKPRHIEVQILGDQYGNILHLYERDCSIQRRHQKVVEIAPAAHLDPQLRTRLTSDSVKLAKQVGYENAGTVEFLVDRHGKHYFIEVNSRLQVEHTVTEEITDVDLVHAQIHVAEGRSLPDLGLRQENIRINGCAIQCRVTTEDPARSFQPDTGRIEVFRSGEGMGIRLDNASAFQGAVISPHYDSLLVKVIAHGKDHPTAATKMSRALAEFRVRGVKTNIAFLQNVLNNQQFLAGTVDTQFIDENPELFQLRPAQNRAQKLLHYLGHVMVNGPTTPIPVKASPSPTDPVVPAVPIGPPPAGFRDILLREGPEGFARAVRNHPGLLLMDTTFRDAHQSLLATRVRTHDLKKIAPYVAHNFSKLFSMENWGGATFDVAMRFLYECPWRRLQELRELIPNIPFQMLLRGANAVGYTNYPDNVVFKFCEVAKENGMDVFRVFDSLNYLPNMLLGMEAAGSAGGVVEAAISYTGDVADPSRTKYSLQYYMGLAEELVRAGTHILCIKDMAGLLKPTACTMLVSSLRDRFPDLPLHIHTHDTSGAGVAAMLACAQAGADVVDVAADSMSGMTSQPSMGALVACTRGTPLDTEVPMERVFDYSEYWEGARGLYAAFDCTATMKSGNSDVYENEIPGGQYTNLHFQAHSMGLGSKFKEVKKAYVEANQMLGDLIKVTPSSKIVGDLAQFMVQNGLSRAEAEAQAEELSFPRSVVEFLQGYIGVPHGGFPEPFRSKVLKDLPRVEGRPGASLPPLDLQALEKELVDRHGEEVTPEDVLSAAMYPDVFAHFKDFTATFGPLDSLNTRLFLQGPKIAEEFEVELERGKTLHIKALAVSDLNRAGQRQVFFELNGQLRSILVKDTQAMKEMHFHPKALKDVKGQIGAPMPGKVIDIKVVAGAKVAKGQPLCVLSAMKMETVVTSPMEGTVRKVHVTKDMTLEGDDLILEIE

[4] = molecular target: T2, propionyl-CoA carboxylase (Homo sapiens, UniProt P05165+P05166)
T2 sequence (P05165 53-728): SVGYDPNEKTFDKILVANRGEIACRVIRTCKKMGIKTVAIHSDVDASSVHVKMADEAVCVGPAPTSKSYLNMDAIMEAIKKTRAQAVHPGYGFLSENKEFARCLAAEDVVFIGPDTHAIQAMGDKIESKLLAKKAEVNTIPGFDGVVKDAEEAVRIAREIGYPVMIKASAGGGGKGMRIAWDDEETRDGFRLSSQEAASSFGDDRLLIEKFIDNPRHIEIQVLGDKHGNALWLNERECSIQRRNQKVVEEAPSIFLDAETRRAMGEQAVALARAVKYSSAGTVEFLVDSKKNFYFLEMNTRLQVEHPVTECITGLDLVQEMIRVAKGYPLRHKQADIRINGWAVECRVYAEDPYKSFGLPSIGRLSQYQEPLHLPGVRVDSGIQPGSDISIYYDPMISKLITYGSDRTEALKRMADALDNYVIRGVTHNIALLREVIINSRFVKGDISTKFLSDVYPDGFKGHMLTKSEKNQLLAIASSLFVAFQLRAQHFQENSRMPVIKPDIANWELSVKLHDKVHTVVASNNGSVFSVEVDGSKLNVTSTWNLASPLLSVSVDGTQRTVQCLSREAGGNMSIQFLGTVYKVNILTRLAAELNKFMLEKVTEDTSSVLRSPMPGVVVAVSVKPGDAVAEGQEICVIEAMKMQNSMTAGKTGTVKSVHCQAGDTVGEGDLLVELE
T2 sequence (P05166 29-539): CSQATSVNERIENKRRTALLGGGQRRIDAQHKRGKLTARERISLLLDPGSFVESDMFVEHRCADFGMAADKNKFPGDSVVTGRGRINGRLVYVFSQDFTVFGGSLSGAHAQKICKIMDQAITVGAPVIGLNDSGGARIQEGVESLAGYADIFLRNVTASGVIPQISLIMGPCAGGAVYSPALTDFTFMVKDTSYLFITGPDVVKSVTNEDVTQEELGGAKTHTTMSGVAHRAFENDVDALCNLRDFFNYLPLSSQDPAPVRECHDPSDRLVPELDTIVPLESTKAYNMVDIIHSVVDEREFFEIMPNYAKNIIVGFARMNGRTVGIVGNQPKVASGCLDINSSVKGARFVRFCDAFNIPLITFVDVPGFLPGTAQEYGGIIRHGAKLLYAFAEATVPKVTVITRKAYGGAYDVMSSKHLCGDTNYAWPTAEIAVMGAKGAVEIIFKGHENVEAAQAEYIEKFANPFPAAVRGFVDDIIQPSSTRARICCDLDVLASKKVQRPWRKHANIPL

[5] = test system: Hep-G2 cells
[6] = test system: C2C12 cells
[7] = test system: rat muscle slices
[8] = sucrose-fed rats, three weeks
[9] = test system: insulin-resistant rat muscle tissue; conditions: within 30 min of compound administration
[10] = rats, acute (46 min) treatment
[11] = test system: liposarcoma

## O=C(c1c2ccccc2cc2ccccc12)N1CCC(N2CCC[C@@H](C(=O)N3CCOCC3)C2)CC1 [CP-640186]
[1]
  IC50: ~0.06 µM
[2]
  IC50: ~0.06 µM
[3]
  inhibition of pyruvate carboxylase: without inhibiting
[4]
  inhibition of propionyl-CoA carboxylase: without inhibiting
[5]
  CPT-I activity: increased
  FA synthesis: reduced
  apoA1 secretion: without affecting
  apoB secretion: reduced
  cholesterol synthesis: without affecting
  triglyceride synthesis and secretion: reduced
[6]
  FA oxidation: stimulated
[7]
  FA oxidation: stimulated
Experimental animals
  liver and adipose tissue FA synthesis: reduced
  whole body FA oxidation: increased
Lipogenic and oxidative tissues, fed and fasted state
  malonyl-CoA concentration: acutely reduced
[8]
  insulin sensitivity: improved
  leptin levels: reduced
  liver, muscle and adipose triglycerides: time- and dose-dependently reduced
[8]; selective fat reduction without reducing lean body mass
  body weight: reduced
[8]; without changing plasma glucose levels
  hyperinsulinemia produced by the high sucrose diet: reduced
[9]
  insulin sensitivity: stimulation
[10]
  FA clearance: stimulated
  glucose clearance: without decreasing

## CO[C@H]1CCCC[C@@H](c2ccccc2)OC(=O)[C@@H](C)[C@@]2(O)O[C@H]([C@@H](C)[C@H](O)[C@H]2OC)[C@@H](C)/C=C/[C@H]1OC [soraphen A]
[11]
  lipogenesis: inhibited
  tumor cell growth: inhibited
